Measured values: PMC9090415, “Discovery of small molecule inhibitors of Plasmodium falciparum apicoplast DNA polymerase” (Journal of Enzyme Inhibition and Medicinal Chemistry, 2022)
Read-outs that look alike come from different tables or passages of the source.

How the values were obtained:
[1] = target: Babesia bovis apicoplast DNA polymerase (Bb-apPOL); assay: In vitro DNA polymerase inhibition assay, Bb-apPOL; format: biochemical; conditions: Table 2
Method: Codon-optimized, exonuclease-deficient Pf-apPOL was overexpressed in E. coli BL21 (DE3) and purified as described. The protein was dialysed against two, 1-liter changes of 20 mM Tris-HCl (pH 8.0), 400 mM NaCl, and 20% glycerol. Plasmodium bergei and Babesia bovis apPOLs (Pb-apPOL and Bb-apPOL, respectively) were codon-optimized, expressed, and purified as for Pf-apPOL[15]. Bacteriophage T4 DNA polymerase was purified as described. The DNA oligonucleotides used to make the high-throughput substrate were obtained from Integrated DNA Technologies. Deoxynucleotides were purchased from Strategene. All other materials came from Fisher Scientific.
(§1) We tested the ability of the 102 compounds to kill P. falciparum parasites cultured in human red blood cells. Due to the number of compounds, we used a single inhibitor concentration of 20 µM and performed experiments in triplicate. […] These compounds were then tested in a dose-response format against chloroquine resistant P. falciparum parasites (Dd2) and the resulting data were fit to a sigmoidal growth inhibition curve to determine EC50 values (Figure 5, Table 2). […] Finally, to determine if the compounds were killing the parasites solely via apicoplast disruption, the dose-response curves were also performed with 1 mM isopentylpyrophosphate (IPP) in the growth media (Table 2). […] Very little is known regarding mitochondrial DNA replication in P. falciparum; however, signal sequence identification algorithms have predicted that the other bacterial A-family DNA polymerase residing in P. falciparum is targeted to the mitochondria (PF3D7_0625300)[29]. […] We are currently in the process of cloning and expressing this putative mitochondrial DNA polymerase to determine the effect of these compounds on its activity.

[2] = system: chloroquine resistant P. falciparum parasites (strain Dd2); assay: Parasite growth inhibition assay in human red blood cells (flow cytometry, acridine orange); format: cell-based; conditions: Plasmodium falciparum, Erythrocyte
Method: The chloroquine resistant P. falciparum parasites (strain Dd2) were cultured in de-identified, IRB-exempt human red blood cells (RBCs) obtained from the American Red Cross and parasite cultures were maintained as described. Parasitaemia (percentage of total RBCs infected) was measured by flow cytometry on an Attune NxT (ThermoFisher) by nucleic-acid staining of cultured RBCs with phosphate-buffered saline (PBS) containing 0.8 µg ml^−1 acridine orange. We began by determining percent growth inhibition at single compound dose (20 µM) for the 102 non-toxic compounds. […] The experiments were initiated with a starting parasitaemia of ∼1% and parasitaemia was measured 72 and 96 h post compound addition. Growth was normalised to parasite cultures with carrier only (DMSO).
as §1

[3] = target: T1, bacteriophage T4 DNA polymerase (Enterobacteria phage T4, UniProt P04415); assay: Counter-screen against bacteriophage T4 DNA polymerase; format: biochemical; conditions: for % inhibition T4 10' 2.5 / % inhibition T4 10' 5 / % inhibition T4 10' 10 / % inhibition T4 10' 20 / % inhibition T4 10' 40 / % inhibition T4 10' 80: read at 10'
T1 construct: made in house
T1 sequence (P04415 1-898): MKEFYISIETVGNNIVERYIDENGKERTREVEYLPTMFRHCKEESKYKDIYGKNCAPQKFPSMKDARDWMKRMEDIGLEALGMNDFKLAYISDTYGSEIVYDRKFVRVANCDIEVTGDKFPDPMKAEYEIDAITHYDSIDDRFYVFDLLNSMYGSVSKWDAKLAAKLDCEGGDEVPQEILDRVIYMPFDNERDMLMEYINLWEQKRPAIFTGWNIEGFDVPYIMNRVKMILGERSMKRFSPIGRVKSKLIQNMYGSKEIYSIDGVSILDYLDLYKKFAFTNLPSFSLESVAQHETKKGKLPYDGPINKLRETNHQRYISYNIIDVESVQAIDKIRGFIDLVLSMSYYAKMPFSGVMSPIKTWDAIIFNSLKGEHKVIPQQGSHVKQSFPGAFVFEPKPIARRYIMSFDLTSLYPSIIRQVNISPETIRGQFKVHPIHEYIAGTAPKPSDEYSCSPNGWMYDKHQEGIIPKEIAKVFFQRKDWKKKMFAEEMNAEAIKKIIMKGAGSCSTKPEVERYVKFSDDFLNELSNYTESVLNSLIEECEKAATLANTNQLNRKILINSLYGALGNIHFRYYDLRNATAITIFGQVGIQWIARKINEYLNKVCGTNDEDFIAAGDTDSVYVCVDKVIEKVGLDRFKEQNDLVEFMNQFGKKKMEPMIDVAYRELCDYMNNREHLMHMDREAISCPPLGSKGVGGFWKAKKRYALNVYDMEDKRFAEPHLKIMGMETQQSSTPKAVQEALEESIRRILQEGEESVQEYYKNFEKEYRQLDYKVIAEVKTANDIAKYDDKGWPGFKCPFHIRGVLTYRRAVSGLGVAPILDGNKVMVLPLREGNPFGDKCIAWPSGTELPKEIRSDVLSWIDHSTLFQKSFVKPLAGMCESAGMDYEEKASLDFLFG
Method in brief: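 Purified T4 DNA polymerase, a B-family enzyme, served as the counter-screen enzyme. Compounds were tested in dose-response format and IC50 values were derived.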

[4] = Dd2 parasites in human RBCs, dose-response, no IPP, read-out: EC50
[5] = Dd2 parasites, 1 mM isopentylpyrophosphate (IPP) in the growth media, read-out: EC50 + IPP

CCOc1nc2cccc(C(=O)OC(C)OC(=O)OC3CCCCC3)c2n1Cc1ccc(-c2ccccc2-c2nnn[nH]2)cc1 (stereo not shown) [Molecule 94]
IC50 [1]: 30 ± 3 µM | EC50 [2, 4]: 4.6 ± 0.2 µM | EC50 [2, 5]: 3.7 ± 0.5 µM

OC(C#Cc1ccccc1)c1ccco1 (stereo not shown) [Molecule 95]
IC50 [1]: 2.5 ± 0.2 µM | EC50 [2, 4]: 7.5 ± 0.5 µM | EC50 [2, 5]: 7.4 ± 0.4 µM

COc1ccc(CNC(=O)Cn2nc3c(c2NC(=O)Cc2cccs2)CSC3)cc1 [Molecule 55]
IC50 [1]: 1.5 ± 1 µM | EC50 [2, 4]: 3.5 ± 0.3 µM | EC50 [2, 5]: 4.3 ± 0.2 µM

O=C(O)c1ccc(-c2nc3cc(-c4ccc5nc(-c6ccc(C(=O)O)cc6)[nH]c5c4)ccc3[nH]2)cc1 [Molecule 1]
IC50 [1]: 3.7 ± 0.2 µM | EC50 [2, 4]: 8.6 ± 0.4 µM | EC50 [2, 5]: 9.3 ± 0.5 µM

CC(NC(=O)Cc1cc(=O)[nH]c(SCc2cccc(Cl)c2)n1)c1ccccc1 (stereo not shown) [Molecule 67, O=C(NC(c1ccccc1)C)Cc1nc(SCc2cccc(c2)Cl)[nH]c(=O)c1]
% inhibition T4 10' ([3]; DRC-2, concentration 10): 19% | % inhibition T4 10' ([3]; DRC-2, concentration 20): 18% | % inhibition T4 10' ([3]; DRC-2, concentration 80): 31% | % inhibition T4 40' ([3]; DRC-2, concentration 2.5): -9% | % inhibition T4 40' ([3]; DRC-2, concentration 10): 19% | % inhibition T4 40' ([3]; DRC-2, concentration 20): 19% | % inhibition T4 40' ([3]; DRC-2, concentration 40): 31% | % inhibition T4 90' ([3]; DRC-2, concentration 2.5): -9% | % inhibition T4 90' ([3]; DRC-2, concentration 10): 18% | % inhibition T4 90' ([3]; DRC-2, concentration 20): 18%

O=C(c1c[nH]c2ncccc12)N1CCCC1 [Molecule 63, O=C(c1c[nH]c2c1cccn2)N1CCCC1]
% inhibition T4 10' ([3]; DRC-2, concentration 20): 25% | % inhibition T4 10' ([3]; DRC-2, concentration 40): 31% | % inhibition T4 40' ([3]; DRC-2, concentration 20): 25% | % inhibition T4 90' ([3]; DRC-2, concentration 40): 31%

CC(=O)OCC1=C(C(=O)[O-])N2C(=O)[C@@H](NC(=O)Cc3cccs3)[C@H]2SC1.[Na+] [Molecule 73, CC(=O)OCC1=C(C(=O)[O-])N2[C@H](SC1)[C@@H](C2=O)NC(=O)Cc1cccs1.[Na+]]
% inhibition T4 10' 2.5 ([3]; DRC-1, concentration 2.5): 11.7205% | % inhibition T4 10' 5 ([3]; DRC-1, concentration 5): 17.9504% | % inhibition T4 10' 10 ([3]; DRC-1, concentration 10): 24.8784% | % inhibition T4 10' 20 ([3]; DRC-1, concentration 20): 32.107% | % inhibition T4 10' 40 ([3]; DRC-1, concentration 40): 49.9492% | % inhibition T4 10' 80 ([3]; DRC-1, concentration 80): 43.1529% | % inhibition T4 70' 2.5 ([3]; DRC-1, read at 70', concentration 2.5): 9.196% | % inhibition T4 70' 5 ([3]; DRC-1, read at 70', concentration 5): 11.8887% | % inhibition T4 70' 10 ([3]; DRC-1, read at 70', concentration 10): 17.9088% | % inhibition T4 70' 20 ([3]; DRC-1, read at 70', concentration 20): 22.6844% | % inhibition T4 70' 40 ([3]; DRC-1, read at 70', concentration 40): 42.1653% | % inhibition T4 70' 80 ([3]; DRC-1, read at 70', concentration 80): 41.199% | % inhibition T4 130' 2.5 ([3]; DRC-1, read at 130', concentration 2.5): 4.91% | % inhibition T4 130' 5 ([3]; DRC-1, read at 130', concentration 5): 7.499% | % inhibition T4 130' 10 ([3]; DRC-1, read at 130', concentration 10): 13.1805% | % inhibition T4 130' 20 ([3]; DRC-1, read at 130', concentration 20): 16.8593% | % inhibition T4 130' 40 ([3]; DRC-1, read at 130', concentration 40): 38.0136% | % inhibition T4 130' 80 ([3]; DRC-1, read at 130', concentration 80): 33.8147% | % inhibition T4 10' 2.5 ([3]; DRC-2, concentration 2.5): 0.14% | % inhibition T4 10' 5 ([3]; DRC-2, concentration 5): 0.574% | % inhibition T4 10' 10 ([3]; DRC-2, concentration 10): 12% | % inhibition T4 10' 20 ([3]; DRC-2, concentration 20): 17% | % inhibition T4 10' 40 ([3]; DRC-2, concentration 40): 26% | % inhibition T4 10' 80 ([3]; DRC-2, concentration 80): 36% | % inhibition T4 40' 2.5 ([3]; DRC-2, read at 40', concentration 2.5): 0.442% | % inhibition T4 40' 5 ([3]; DRC-2, read at 40', concentration 5): 0.491% | % inhibition T4 40' 10 ([3]; DRC-2, read at 40', concentration 10): 11% | % inhibition T4 40' 20 ([3]; DRC-2, read at 40', concentration 20): 17% | % inhibition T4 40' 40 ([3]; DRC-2, read at 40', concentration 40): 25% | % inhibition T4 40' 80 ([3]; DRC-2, read at 40', concentration 80): 42% | % inhibition T4 90' 2.5 ([3]; DRC-2, read at 90', concentration 2.5): 1.28% | % inhibition T4 90' 10 ([3]; DRC-2, read at 90', concentration 10): 10% | % inhibition T4 90' 20 ([3]; DRC-2, read at 90', concentration 20): 17% | % inhibition T4 90' 40 ([3]; DRC-2, read at 90', concentration 40): 23% | % inhibition T4 90' 80 ([3]; DRC-2, read at 90', concentration 80): 41% | % inhibition T4 180' 2.5 ([3]; DRC-2, read at 180', concentration 2.5): 0.485% | % inhibition T4 180' 5 ([3]; DRC-2, read at 180', concentration 5): -2.85% | % inhibition T4 180' 10 ([3]; DRC-2, read at 180', concentration 10): 6.41% | % inhibition T4 180' 20 ([3]; DRC-2, read at 180', concentration 20): 14% | % inhibition T4 180' 40 ([3]; DRC-2, read at 180', concentration 40): 20% | % inhibition T4 180' 80 ([3]; DRC-2, read at 180', concentration 80): 41%
